Columns and labels:
[1] = biological target: T1, long form of human 5-HT3-A together with 5-HT3-C (Homo sapiens, UniProt P46098+Q8WXA8); assay: Two-electrode voltage clamp, oocytes co-injected with long form of human 5-HT3-A and 5-HT3-C; type: cell-based; settings: 10 μM; n=2
T1 construct: Characterization of the Function of Protein Encoded by p5HT3CR in Xenopus oocvtes; expressed in transfected cells; host or cells: Xenopus laevis oocytes co-injected with cRNAs
T1 sequence (P46098 24-510 isoform P46098-2): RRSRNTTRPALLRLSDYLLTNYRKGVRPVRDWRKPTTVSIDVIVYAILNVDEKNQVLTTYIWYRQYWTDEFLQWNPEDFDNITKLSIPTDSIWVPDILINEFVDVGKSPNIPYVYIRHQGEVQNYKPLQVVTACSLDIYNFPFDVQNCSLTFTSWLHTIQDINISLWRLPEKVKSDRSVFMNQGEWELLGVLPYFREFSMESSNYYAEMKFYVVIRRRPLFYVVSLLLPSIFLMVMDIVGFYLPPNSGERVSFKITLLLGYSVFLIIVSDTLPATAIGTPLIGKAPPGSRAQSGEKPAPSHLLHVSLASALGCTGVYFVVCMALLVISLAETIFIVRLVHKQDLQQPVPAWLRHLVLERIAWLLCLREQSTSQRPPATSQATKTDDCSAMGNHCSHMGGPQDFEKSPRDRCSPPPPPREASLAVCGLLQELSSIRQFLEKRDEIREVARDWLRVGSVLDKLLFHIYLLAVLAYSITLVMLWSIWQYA
T1 sequence (Q8WXA8 28-447): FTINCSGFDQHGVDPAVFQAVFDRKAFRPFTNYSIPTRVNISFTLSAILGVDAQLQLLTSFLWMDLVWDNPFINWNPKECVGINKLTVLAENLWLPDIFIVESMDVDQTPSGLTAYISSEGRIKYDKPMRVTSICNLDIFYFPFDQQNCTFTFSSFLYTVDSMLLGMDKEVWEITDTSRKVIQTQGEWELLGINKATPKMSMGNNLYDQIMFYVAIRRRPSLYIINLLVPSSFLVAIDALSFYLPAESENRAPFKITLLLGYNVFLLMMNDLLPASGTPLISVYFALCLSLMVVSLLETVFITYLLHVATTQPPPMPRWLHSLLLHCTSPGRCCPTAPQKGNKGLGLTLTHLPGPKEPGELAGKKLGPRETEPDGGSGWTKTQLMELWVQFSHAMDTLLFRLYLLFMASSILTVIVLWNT
Procedure: Characterization of the Function of Protein Encoded by p5HT3CR in Xenopus oocvtes Xenopus laevis oocytes were prepared and injected using standard methods previously described and known in the art (Fraser et al., 1993). Ovarian lobes from adult female Xenopus laevis (Nasco, Fort Atkinson, Wis.) were teased apart, rinsed several times in nominally Ca-free saline containing (in mM): NaCl 82.5, KCl 2.5, MgCl2 1, HEPES 5, adjusted to pH 7.0 with NaOH(OR-2), and gently shaken in OR-2 containing 0.2% collagenase Type 1 (ICN Biomedicals, Aurora, Ohio) for 2–5 hours. When approximately 50% of the follicular layers were removed, Stage V and VI oocytes were selected and rinsed in media consisting of 75% OR-2 and 25% ND-96. The ND-96 contained (in mM): NaCl 100, KCl 2, MgCl2 1, CaCl2 1.8, HEPES 5, Na pyruvate 2.5, gentamicin (50 ug/ml), adjusted to pH 7.0 with NaOH. […] Whole cell agonist-induced currents were measured 1–14 days after injection with a conventional two-electrode voltage clamp (GeneClamp500, Axon Instruments, Foster City, Calif.) using standard methods previously described and known in the art (Dascal, 1987). […]

5-HT3-A receptors = biological target: T2, 5-HT3-A receptors (Homo sapiens, UniProt P46098); assay: FLIPR DiBAC control, cells stably expressing 5-HT3-A receptors; type: cell-based; settings: control for the DIBAC; increase in fluorescence
T2 sequence (P46098 24-478): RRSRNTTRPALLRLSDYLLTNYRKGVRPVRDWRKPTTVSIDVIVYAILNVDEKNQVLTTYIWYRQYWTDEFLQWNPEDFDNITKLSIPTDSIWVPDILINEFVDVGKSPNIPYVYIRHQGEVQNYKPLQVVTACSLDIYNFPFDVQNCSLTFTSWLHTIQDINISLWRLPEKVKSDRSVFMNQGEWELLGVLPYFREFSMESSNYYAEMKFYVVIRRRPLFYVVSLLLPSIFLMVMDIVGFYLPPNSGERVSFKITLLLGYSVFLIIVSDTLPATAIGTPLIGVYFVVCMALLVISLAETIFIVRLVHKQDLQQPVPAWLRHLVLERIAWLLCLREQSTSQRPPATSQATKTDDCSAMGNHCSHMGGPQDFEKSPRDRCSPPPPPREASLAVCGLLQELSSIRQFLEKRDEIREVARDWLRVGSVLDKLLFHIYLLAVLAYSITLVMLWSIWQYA

## NCCc1c[nH]c2ccc(O)cc12 [5-HT, 5-hydroxytryptamine]
[1]
  sensitivity of oocytes to agonist: insensitive
5-HT3-A receptors
  DiBAC membrane potential response: fast transient depolarization

— patent publication US7109296B2, “Human 5-HT3-C protein” (Ortho-McNeil Pharmaceutical, Inc., priority 1999, dated 2006)
